Test results from patent US6555692B1, “Preparation and use of bifunctional molecules having DNA sequence binding specificity” (California Institute of Technology, priority 1996, dated 2003).

Tests used:
[1] = system: 5′-TGGAACA-3′; assay: DNase I footprint titration; settings: formal match sequence
[2] = system: 5′-TGTAACA-3′; assay: DNase I footprint titration
[3] = system: 5′-TGTGAACA-3′; assay: DNase I footprint titrations; settings: single base pair mismatch sequence
[4] = system: 5′-AACCAAGTACTTGGTA-3′; assay: Association constants, recognition of 16 base pairs; format: binding; settings: Table 10, C3-OH polyamides, match site
[5] = system: 5′-AACCAAGTCTTGGTA-3′; assay: Association constants, recognition of 15 base pairs; settings: Table 7, C3-OH polyamides, match site

CN(C)CCCNC(=O)CCNC(=O)c1cc(NC(=O)c2cc(NC(=O)c3cc(NC(=O)c4cc(NC(=O)c5nc(NC(=O)CCCNC(=O)c6cc(NC(=O)c7cc(NC(=O)c8cc(NC(=O)c9nc(NC(=O)c%10nccn%10C)cn9C)cn8C)cn7C)cn6C)cn5C)cn4C)cn3C)cn2C)cn1C [ImImPyPyPy-γ-ImPyPyPyPy-β-Dp]
equilibrium association constant Ka [1]: 3.6×10^9 m^−1 | reduction of affinity of the 5′-TGTAACA-3′ complex relative to ImPyPyPyPy-γ-ImPyPyPyPy-β-Dp [2]: > 300 fold | free energy difference ([2]; 5′-TGTAACA-3′ complexes): at least 4 kcal/mol | equilibrium association constant Ka ([2]; pH 7.0, 22° C.): < 1e+07 M⁻¹

CN(C)CCCNC(=O)CCNC(=O)c1cc(NC(=O)c2cc(NC(=O)CCNC(=O)c3cc(NC(=O)c4cc(NC(=O)c5nc(NC(=O)CCCNC(=O)c6cc(NC(=O)c7cc(NC(=O)c8cc(NC(=O)CCNC(=O)c9cc(NC(=O)c%10nccn%10C)cn9C)cn8C)cn7C)cn6C)cn5C)cn4C)cn3C)cn2C)cn1C
Ka [3]: < 1e+09 M⁻¹

Cn1cc(NC(=O)c2cc(NC(=O)c3cc(NC(=O)CCCNC(=O)c4cc(NC(=O)c5nc(NC(=O)c6nc(NC(=O)CCCCCNC(=O)c7cc(NC(=O)c8cc(NC(=O)c9cc(NC(=O)c%10nccn%10C)cn9C)cn8C)cn7C)cn6C)cn5C)cn4C)cn3C)cn2C)cc1C(=O)NCCCO [ImPyPyPy-C6-ImImPy-γ-PyPyPy-C3—OH]
Ka 5′-AACCAAGTACTTGGTA [4]: < 1e+08 M⁻¹

CC(=O)Nc1cn(C)c(C(=O)Nc2cn(C)c(C(=O)Nc3cc(C(=O)NCCCC(=O)Nc4cc(C(=O)Nc5cc(C(=O)Nc6cc(C(=O)NCCCO)n(C)c6)n(C)c5)n(C)c4)n(C)c3)n2)n1 [Ac-ImImPy-γ-PyPyPy-C3—OH]
Ka 5′-AACCAAGTCTTGGTA-3′ [5]: 7 × 10^6 | Ka 5′-AACCAAGTACTTGGTA [4]: 7 × 10^6
